Reference: article PMC10965847, “Expanding a peptide-covalent probe hybrid for PET imaging of S. aureus driven focal infections” (EJNMMI Radiopharmacy and Chemistry, 2024)
“Also recorded” adds a separate entry of the source.

Key:
S. aureus membrane = assay: Membrane depolarization, DiOC2(3), flow cytometry; assay type: cell-based; conditions: 5 µM CCCP; DiOC2(3) 30 µM; result in words
Text: AMPs are reported to destroy bacterial cells by permeabilizing the membrane, followed by depolarization (Mitra et al. [2020]; Bhatt Mitra et al. [2020]). To explore if UBI-APBA utilized this strategy to adversely affect the survival of S. aureus, depolarization and permeabilization of S. aureus membrane was studied by flow cytometry. […] Furthermore, we investigated the permeabilization of the S. aureus membrane by assessing propidium iodide uptake (PI).
For the permeabilization study, peptide-treated cells were washed with saline followed by staining with DNA stain, propidium iodide (PI) at a final concentration of 45 µM (30 min at 37 °C and 120 rpm). Isopropanol treated cells were used as positive control. The % permeabilization was calculated after normalizing the values with respect to the untreated (0% permeabilization) and isopropanol treated cells (100% permeabilization).
Positive control for membrane depolarization studies was prepared by incubating bacteria under similar conditions with 5 µM CCCP.

HEK 293 cells = assay: Cell cytotoxicity (MTT) assay; conditions: HEK 293, MTT, 24 h, result in words
Protocol: Human embryonic kidney (HEK 293) cells were maintained in DMEM supplemented with 10% FBS and 1% antibiotic-antimycotic solution at 37 °C, 5% CO2 in humidified atmosphere.
Cell cytotoxicity was measured by performing 3-(4,5-dimethylthiazol-2-yl)-2,5-diphenyltetrazolium bromide) (MTT) assay. Briefly, 2000 cells/100 µL were seeded in a 96-well plate and kept overnight in incubator at 37 °C, 5% CO2. […] Melittin (17 µM) was used as a positive control for cytotoxicity assay. Following incubation, 10 µL of MTT was added to each well and after 3 h the supernatant was removed and 100 µL of dimethyl sulfoxide (DMSO) was added. After 1 h incubation, the absorbance was recorded at 570 nm. One-way ANOVA was used to establish the presence of significant groups, and Tukey’s test was subsequently utilized to conduct the comparison of means.

human erythrocytes = assay: Haemolysis assay; conditions: 30 min, 37 °C, result in words; for haemolysis: human erythrocytes 4% (v/v) in PBS, 8, 32 and 128 µM, absorbance 540 nm, duplicates; for haemolysis (positive controls): human erythrocytes 4% (v/v), melittin 17 µM (50 µg/mL), triton X-100 0.1% (v/v)
Protocol: The haemolysis assay is widely used to assess the therapeutic potential of a given AMP. AMPs that cause ruptured RBCs at their MICs naturally have low therapeutic potential.
Fresh human blood samples were obtained from healthy donors with the approval of the institutional medical ethics committee. Erythrocytes were isolated from heparinized human blood by centrifugation at 2000g for 5 min after washing three times with PBS at 4 °C. After removing the supernatant, the cell pellet was resuspended in 2 mL of PBS, and cells were diluted at 4% (v/v) for the haemolysis experiment. […] Samples were centrifuged at 2000g for 5 min, and the absorbance of supernatants was measured at 540 nm using a polarstar omega plate reader from BMG Labtech. Erythrocytes lysed with 0.1% triton X-100 and 50 µg/mL melittin were used as positive controls. Percentage haemolysis was calculated using the formula: Haemolysis (%) = (ASAMPLE − ANG)/(APC − ANG) × 100[ASAMPLE = Absorbance recorded for samples at 540 nm, ANG = Absorbance recorded for untreated (negative control) erythrocytes at 540 nm, APC = Absorbance recorded for Melittin treated (positive control) erythrocytes at 540 nm]. One-way ANOVA was used to establish the presence of significant groups, and Tukey’s test was subsequently utilized to conduct the comparison of means.

in vitro = conditions: human, human serum
Protocol: The hydrophilicity of complexes is a predictor of fast renal clearance, which is desirable for diagnostic radiopharmaceuticals.
To assess the stability of the ^68Ga labeled peptide conjugates in PBS, 50 µL of complexes were added to 450 µL of PBS (1:10 dilution) and incubated at 37 °C for 3 h. Aliquots were taken at the end of incubation and analyzed by HPLC, as described previously. Similarly, to estimate the integrity of the ^68Ga complexes in serum, incubation was done with human serum at 1:10 dilution for 3 h at 37 °C. Samples were precipitated with 2% trichloroacetic acid (TCA), separated by centrifuging at 10,000g for 5 min, and analyzed by HPLC.

S. aureus = conditions: different experimental conditions and strain; ref Brouwer et al. [2006]; cited from earlier work
Protocol: (§1) The MICs were determined as the lowest concentration at which the conversion of the resazurin dye from blue to pink was absent. Conversely, the minimum bactericidal concentrations (MBC) were determined using the spot assay shown in Fig. 3a, where the absence of a bacterial lawn indicated the minimum required concent ...

S. aureus, ATCC 25,923 [1] = assay: MIC by resazurin (alamar blue) reduction, broth dilution; assay type: cell-based; conditions: for growth inhibitory (bacteriostatic) / bactericidal effect on S. aureus: MIC and MBC assays, result in words
Protocol: as §1, with “concentration for bacterial killing. […] Although UBI has been previously reported as bactericidal against S. aureus, the experimental conditions and strain utilized were different (Brouwer et al. [2006]).” for “concent ...”
A single colony of S. aureus, ATCC 25,923 (Microbiologics) was inoculated in Mueller Hinton broth (MHB) and incubated overnight at 120 rpm (revolutions per minute) and 37 °C. The experiment was carried out in a 96-microtiter plate using a broth dilution assay wherein all the peptides (ABI scientific) were diluted two-fold in each step-in media (M9 supplemented with 0.01% Tryptone). Cells were washed twice with media and diluted to a final concentration of 10^5 colony forming units (CFU) at each well. The final volume in each well was 200 µL. […] After 24 h, 30 µL of 0.75 mg/mL of resazurin dye (HiMedia Labs) was added in each of the wells and kept for incubation overnight at 37 °C with mild shaking. The next day, the 96 well plates as well as MHB-agar plates, were observed, and results were recorded. The experiment was carried out in triplicates. As mentioned earlier, S. aureus was cultured and washed with media to carry out a time-kill assay. Experiments were performed in microfuge tubes. ~10^6 cells were incubated with minimum inhibitory concentration (MIC) of UBI-APBA (2 µM) at a final volume of 500 µL adjusted with M9 media. Cells and UBI were incubated in media at 37 °C at 120 rpm. 50 µL aliquots from each reaction mixture were removed at required time intervals. These aliquots were plated on the MHB agar plates and incubated at 37 °C. The following day, colonies were counted to get CFU. Surviving fractions were plotted against time. Origin graphing and analysis 6.0 Pro software was used for plotting and analysis of data.

S. aureus, ATCC 25,923 [2] = assay: MBC by spot assay on MHB-agar; assay type: cell-based; conditions: 5 µL aliquots from MIC wells spotted on MHB-agar, overnight 37 °C, absence of bacterial lawn, triplicates
Protocol: as §1, with “concentration for bacterial killing. […] Although UBI has been previously reported as bactericidal against S. aureus, the experimental conditions and strain utilized were different (Brouwer et al. [2006]).” for “concent ...”
A single colony of S. aureus, ATCC 25,923 (Microbiologics) was inoculated in Mueller Hinton broth (MHB) and incubated overnight at 120 rpm (revolutions per minute) and 37 °C. The experiment was carried out in a 96-microtiter plate using a broth dilution assay wherein all the peptides (ABI scientific) were diluted two-fold in each step-in media (M9 supplemented with 0.01% Tryptone). Cells were washed twice with media and diluted to a final concentration of 10^5 colony forming units (CFU) at each well. The final volume in each well was 200 µL. […] After 24 h, 30 µL of 0.75 mg/mL of resazurin dye (HiMedia Labs) was added in each of the wells and kept for incubation overnight at 37 °C with mild shaking. The next day, the 96 well plates as well as MHB-agar plates, were observed, and results were recorded. […] The following day, colonies were counted to get CFU. […]

[3] = shake-flask octanol/water 1:1 (25 µL sample + 975 µL water + 1 mL octanol), vortexed, 5 min, centrifuged; NaI(Tl) counting; n = 4
Protocol: Partition coefficients for ^68Ga complexes were determined by mixing 25 µL of sample with 975 µL water and 1 mL octanol (octanol: water = 1:1). Thereafter, the mixture was vortexed and incubated for 5 min, followed by centrifugation for 5 min at 3000 rpm for separation of aqueous and organic phase. NaI (Tl) counter was used to measure the activity associated with both the phases and log P value [logarithm of the activity concentration in n-Octanol / activity concentration in the aqueous layer] was calculated.

[4] = In vitro stability of ^68Ga complexes in PBS; assay type: physicochemical; conditions: 1:10 dilution, 37 °C, 3 h, radio-HPLC

In the case of `N#CC(C#N)=NNc1cccc(Cl)c1` [CCCP, Carbonyl cyanide m-chlorophenyl hydrazone], the “depolarization of bacterial membrane (positive control)” value (S. aureus membrane) is reported as “low red to green fluorescence intensity ratio”.

For `CSCC[C@H](NC(=O)[C@H](CCCNC(=N)N)NC(=O)[C@H](CCCNC(=N)N)NC(=O)[C@H](CCCCN)NC(=O)[C@H](C)NC(=O)[C@H](CCCNC(=N)N)NC(=O)CNC(=O)[C@@H](N)[C@@H](C)O)C(=O)N[C@@H](CCC(N)=O)C(=O)N[C@@H](Cc1ccc(O)cc1)C(=O)N[C@@H](CC(N)=O)C(=O)N[C@@H](CCCNC(=N)N)C(=O)N[C@@H](CCCNC(=N)N)C(=O)NCC(=O)N[C@@H](CSCCCNC(=O)COc1ccc(C(C)=O)c(B(O)O)c1)C(N)=O` [UBI-APBA], the cell cytotoxicity (HEK 293 cells; 128 µM (64 × MIC of UBI-APBA), n = 3) was “minimal cytotoxicity; also recorded: neither hemolytic nor cytotoxic” and the haemolysis (human erythrocytes) was “neither hemolytic nor cytotoxic”.

Compound `CSCC[C@H](NC(=O)[C@H](CCCNC(=N)N)NC(=O)[C@H](CCCNC(=N)N)NC(=O)[C@H](CCCCN)NC(=O)[C@H](C)NC(=O)[C@H](CCCNC(=N)N)NC(=O)CNC(=O)[C@@H](NC(=O)CCC(C(=O)O)N1CCN(CC(=O)O)CCN(CC(=O)O)CC1)[C@@H](C)O)C(=O)N[C@@H](CCC(N)=O)C(=O)N[C@@H](Cc1ccc(O)cc1)C(=O)N[C@@H](CC(N)=O)C(=O)N[C@@H](CCCNC(=N)N)C(=O)N[C@@H](CCCNC(=N)N)C(=O)NCC(=O)N[C@@H](CSCCCNC(=O)COc1ccc(C(C)=O)c(B(O)O)c1)C(N)=O` (stereo partly shown) [[^68Ga]Ga-UBI-APBA, metal not drawn] has a remaining at 3 h (in vitro) of 91%.

For melittin, the “cell cytotoxicity (positive control)” value (HEK 293 cells; melittin 17 µM) was “cytotoxic” and the “haemolysis (positive controls)” value (human erythrocytes) was “induced haemolysis”.

In the case of `CSCC[C@H](NC(=O)[C@H](CCCNC(=N)N)NC(=O)[C@H](CCCNC(=N)N)NC(=O)[C@H](CCCCN)NC(=O)[C@H](C)NC(=O)[C@H](CCCNC(=N)N)NC(=O)CNC(=O)[C@@H](N)[C@@H](C)O)C(=O)N[C@@H](CCC(N)=O)C(=O)N[C@@H](Cc1ccc(O)cc1)C(=O)N[C@@H](CC(N)=O)C(=O)N[C@@H](CCCNC(=N)N)C(=O)N[C@@H](CCCNC(=N)N)C(=O)NCC(=O)N[C@@H](CS)C(N)=O` [UBI], the “activity against S. aureus as previously reported” value (S. aureus) is given as “bactericidal”, the haemolysis (human erythrocytes) is given as “neither hemolytic nor cytotoxic” and the “growth inhibitory (bacteriostatic) / bactericidal effect on S. aureus” value (S. aureus, ATCC 25,923 [1]) is given as “no such effect”.

With “Acetyl-cysteine-2-acetyl boronic acid [AcCys-2-APBA]” the MBC (S. aureus, ATCC 25,923 [2]) was > 32 µM, the “growth inhibitory (bacteriostatic) / bactericidal effect on S. aureus” value (S. aureus, ATCC 25,923 [1]) was “no such effect” and the MIC (S. aureus, ATCC 25,923 [1]; S. aureus ATCC 25,923, two-fold broth dilution in M9 + 0.01% Tryptone, 10^5 CFU per well, 200 µL, resazurin added after 24 h, overnight 37 °C, lowest concentration without blue-to-pink conversion, visual, triplicates) was > 32 µM.

For triton X-100, the “haemolysis (positive controls)” value (human erythrocytes) was “induced haemolysis”.

For `CSCC[C@H](NC(=O)[C@H](CCCNC(=N)N)NC(=O)[C@H](CCCNC(=N)N)NC(=O)[C@H](CCCCN)NC(=O)[C@H](C)NC(=O)[C@H](CCCNC(=N)N)NC(=O)CNC(=O)[C@@H](NC(=O)CCC(C(=O)O)N1CCN(CC(=O)O)CCN(CC(=O)O)CC1)[C@@H](C)O)C(=O)N[C@@H](CCC(N)=O)C(=O)N[C@@H](Cc1ccc(O)cc1)C(=O)N[C@@H](CC(N)=O)C(=O)N[C@@H](CCCNC(=N)N)C(=O)N[C@@H](CCCNC(=N)N)C(=O)NCC(=O)N[C@@H](CS)C(N)=O` (stereo partly shown) [[^68Ga]Ga-UBI, metal not drawn], the remaining at 3 h (in vitro) was 97%, the “Partition coefficient, Log P” value [3] was -3.8 ± 0.15 and the “RCP after incubation in PBS” value [4] was 99%.
